Patent US20260176320A1, “MODULATORS OF G-PROTEIN COUPLED RECEPTORS” (priority 2018, published 2026)
Read-outs that look alike come from different tables or passages of the source.

Experiments:
Format in all cases: cell-based
GLP-1R [1] = target: T1, GLP-1R (Homo sapiens, UniProt P43220); assay: HitHunter cAMP assay (GLP-1R); conditions: cAMP; for Emax: read-out: (Emax) GLP-1R
Procedure, shortened: (§1)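 cAMP, luminescence read: agonist 22-pt 2× dilution in DMSO, duplicate, 30 min RT on 10,000 cells/well in 1×HBSS/10 mM HEPES/625 μM IBMX/0.2% BSA; anti-cAMP reagent 1 h RT dark, then O/N RT dark before read.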

GIP-R = target: T2, GIP-R (Homo sapiens, UniProt P48546); assay: HitHunter cAMP assay (GIP-R); conditions: cAMP; for Emax: read-out: (Emax) GIP-R
T2 sequence (P48546 22-466): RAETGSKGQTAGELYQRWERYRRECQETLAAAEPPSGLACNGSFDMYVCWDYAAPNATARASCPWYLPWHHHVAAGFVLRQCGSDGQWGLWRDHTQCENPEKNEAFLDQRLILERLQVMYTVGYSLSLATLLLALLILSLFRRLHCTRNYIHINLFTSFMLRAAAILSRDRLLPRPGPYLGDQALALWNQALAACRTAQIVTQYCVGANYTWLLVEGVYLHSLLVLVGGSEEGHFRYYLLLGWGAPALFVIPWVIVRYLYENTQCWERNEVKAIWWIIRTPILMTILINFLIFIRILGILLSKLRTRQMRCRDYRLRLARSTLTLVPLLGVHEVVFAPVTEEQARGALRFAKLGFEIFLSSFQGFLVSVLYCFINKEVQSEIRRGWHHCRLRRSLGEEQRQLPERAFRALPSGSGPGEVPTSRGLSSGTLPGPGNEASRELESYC
Procedure, shortened: as §1

GLP-1R [2] = target: T1, GLP-1R; assay: PathHunter β-arrestin assay
Procedure, shortened: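 Luminescence read-out of β-arrestin recruitment (enzyme-fragment complementation detection, 3 h at room temperature in the dark) after 90 min agonist stimulation at 37 °C. Agonists tested as 22-point 2× serial dilutions in duplicate, in medium containing 0.2% BSA.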

[3] = Table 3, read-out: EC50 GLP-1R/nM
[4] = Table 3A, read-out: EC50 GLP-1R/nM
[5] = Table 3, read-out: EC50 GIP-R/nM
[6] = Table 3A, read-out: EC50 GIP-R/nM
[7] = PathHunter β-arrestin assay, read-out: β-arrestin activity EC50

T1 sequence (P43220 24-463): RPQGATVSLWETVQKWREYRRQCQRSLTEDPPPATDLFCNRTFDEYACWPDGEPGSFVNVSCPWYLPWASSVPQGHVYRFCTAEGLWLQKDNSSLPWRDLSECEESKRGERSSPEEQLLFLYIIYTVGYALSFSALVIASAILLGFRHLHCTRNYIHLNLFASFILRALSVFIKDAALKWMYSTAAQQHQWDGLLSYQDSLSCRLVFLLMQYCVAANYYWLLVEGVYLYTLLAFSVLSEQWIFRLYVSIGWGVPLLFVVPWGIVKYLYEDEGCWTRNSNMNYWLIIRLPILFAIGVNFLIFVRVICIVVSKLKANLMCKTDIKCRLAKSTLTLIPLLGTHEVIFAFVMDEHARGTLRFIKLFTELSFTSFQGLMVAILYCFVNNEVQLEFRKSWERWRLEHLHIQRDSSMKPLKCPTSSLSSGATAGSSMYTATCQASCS

`CC[C@H](C)[C@H](NC(=O)[C@H](CO)NC(=O)[C@H](Cc1ccc(O)cc1)NC(=O)[C@H](CC(=O)O)NC(=O)[C@H](CO)NC(=O)[C@@H](NC(=O)[C@H](Cc1ccccc1)NC(=O)[C@@H](NC(=O)CNC(=O)[C@H](CCC(=O)O)NC(=O)c1ccc(C(=O)NCCN2C(=O)CSC2=O)cc1)[C@@H](C)O)[C@@H](C)O)C(=O)N[C@@H](Cc1ccc(O)cc1)C(=O)N[C@@H](CC(C)C)C(=O)N[C@@H](CC(=O)O)C(=O)N[C@@H](CCCCN)C(=O)N[C@@H](CCC(N)=O)C(=O)N[C@@H](C)C(=O)N[C@@H](C)C(=O)NC(C)(C)C(=O)N[C@@H](CCC(=O)O)C(=O)N[C@@H](Cc1ccccc1)C(=O)N[C@H](C(=O)N[C@@H](CC(N)=O)C(=O)N[C@@H](Cc1c[nH]c2ccccc12)C(=O)N[C@@H](CC(C)C)C(=O)N[C@@H](CC(C)C)C(=O)N[C@@H](C)C(=O)NCC(=O)NCC(=O)N1CCC[C@H]1C(=O)N[C@@H](CO)C(=O)N[C@@H](CO)C(=O)NCC(=O)N[C@@H](C)C(=O)N1CCC[C@H]1C(=O)N1CCC[C@H]1C(=O)N1CCC[C@H]1C(=O)N[C@@H](CO)C(=O)N[C@@H](CCCCN)C(N)=O)C(C)C` [Compound 186] showed an Emax (GLP-1R [1]; Table 3) of 94%, an EC50 (GLP-1R [1]; [3]) of 1 to 10 nM and an Emax (GLP-1R [1]; Table 3A) of 94%. The EC50 (GLP-1R [1]; [4]) was 1 to 10 nM, the EC50 (GIP-R; [5]) was > 1000 nM and the EC50 (GIP-R; [6]) was > 1000 nM. For the same compound, the Emax at 1 µM (GIP-R; read-out: (Emax) GIP-R at 1 μM, Table 3, at 1 μM) was 4% and the EC50 (GLP-1R [2]; [7]) was > 1000 nM.

`CCCCCCCCCCCCCCCC(=O)N[C@@H](CCC(=O)NCCCC[C@H](NC(=O)[C@H](CO)NC(=O)[C@@H]1CCCN1C(=O)[C@@H]1CCCN1C(=O)[C@@H]1CCCN1C(=O)[C@H](C)NC(=O)CNC(=O)[C@H](CO)NC(=O)[C@H](CO)NC(=O)[C@@H]1CCCN1C(=O)CNC(=O)CNC(=O)[C@H](C)NC(=O)[C@H](CC(C)C)NC(=O)[C@H](CC(C)C)NC(=O)[C@H](Cc1c[nH]c2ccccc12)NC(=O)[C@H](CC(N)=O)NC(=O)[C@@H](NC(=O)[C@H](Cc1ccccc1)NC(=O)[C@H](CCC(=O)O)NC(=O)C(C)(C)NC(=O)[C@H](C)NC(=O)[C@H](C)NC(=O)[C@H](CCC(N)=O)NC(=O)[C@H](CCCCN)NC(=O)[C@H](CC(=O)O)NC(=O)[C@H](CC(C)C)NC(=O)[C@H](Cc1ccc(O)cc1)NC(=O)[C@@H](NC(=O)[C@H](CO)NC(=O)[C@H](Cc1ccc(O)cc1)NC(=O)[C@H](CC(=O)O)NC(=O)[C@H](CO)NC(=O)[C@@H](NC(=O)[C@H](Cc1ccccc1)NC(=O)[C@@H](NC(=O)CNC(=O)[C@H](CCC(=O)O)NC(=O)C(C)(C)NC(=O)CN1CCCCC1=O)[C@@H](C)O)[C@@H](C)O)[C@@H](C)CC)C(C)C)C(N)=O)C(=O)O` [Compound 209] was tested, and the Emax (GLP-1R [1]; Table 3A) was 94%, the EC50 (GLP-1R [1]; [4]) was < 0.1 nM and the Emax (GIP-R; Table 3A) was 27%. The EC50 (GIP-R; [6]) was 10 to 100 nM and the EC50 (GLP-1R [2]; [7]) was 10 to 1000 nM.

`CCCCCCCCCCCCCCCC(=O)N[C@@H](CCC(=O)NCCCC[C@H](NC(=O)[C@H](CO)NC(=O)[C@@H]1CCCN1C(=O)[C@@H]1CCCN1C(=O)[C@@H]1CCCN1C(=O)[C@H](C)NC(=O)CNC(=O)[C@H](CO)NC(=O)[C@H](CO)NC(=O)[C@@H]1CCCN1C(=O)CNC(=O)CNC(=O)[C@H](C)NC(=O)[C@H](CC(C)C)NC(=O)[C@H](CC(C)C)NC(=O)[C@H](Cc1c[nH]c2ccccc12)NC(=O)[C@H](CC(N)=O)NC(=O)[C@@H](NC(=O)[C@H](Cc1ccccc1)NC(=O)[C@H](CCC(=O)O)NC(=O)C(C)(C)NC(=O)[C@H](C)NC(=O)[C@H](C)NC(=O)[C@H](CCC(N)=O)NC(=O)[C@H](CCCCN)NC(=O)[C@H](CC(=O)O)NC(=O)[C@H](CC(C)C)NC(=O)[C@H](Cc1ccc(O)cc1)NC(=O)[C@@H](NC(=O)[C@H](CO)NC(=O)[C@H](Cc1ccc(O)cc1)NC(=O)[C@H](CC(=O)O)NC(=O)[C@H](CO)NC(=O)[C@@H](NC(=O)[C@H](Cc1ccccc1)NC(=O)[C@@H](NC(=O)CNC(=O)[C@H](CCC(=O)O)NC(=O)CSCC(=O)NCCN1CCCN(C)C1=O)[C@@H](C)O)[C@@H](C)O)[C@@H](C)CC)C(C)C)C(N)=O)C(=O)O` [Compound 23] gave an EC50 (GLP-1R [1]; EC50 GLP-1R/nM, Table 3) of 1 to 10 nM, an EC50 (GLP-1R [1]; EC50 GLP-1R/nM, Table 3A) of 1 to 10 nM and an Emax (GLP-1R [1]; Table 3) of 83%. The Emax (GLP-1R [1]; Table 3A) was 83%, the EC50 (GIP-R; EC50 GIP-R/nM, Table 3) was 1 to 10 nM and the EC50 (GIP-R; EC50 GIP-R/nM, Table 3A) was 1 to 10 nM. The Emax (GIP-R; Table 3) was 37%, the Emax (GIP-R; Table 3A) was 37% and the EC50 (GLP-1R [2]) was > 1000 nM.

Work on `CCCCCCCCCCCCCCCC(=O)N[C@@H](CCC(=O)NCCCC[C@H](NC(=O)[C@H](CO)NC(=O)[C@@H]1CCCN1C(=O)[C@@H]1CCCN1C(=O)[C@@H]1CCCN1C(=O)[C@H](C)NC(=O)CNC(=O)[C@H](CO)NC(=O)[C@H](CO)NC(=O)[C@@H]1CCCN1C(=O)CNC(=O)CNC(=O)[C@H](C)NC(=O)[C@H](CC(C)C)NC(=O)[C@H](CC(C)C)NC(=O)[C@H](Cc1c[nH]c2ccccc12)NC(=O)[C@H](CC(N)=O)NC(=O)[C@@H](NC(=O)[C@H](Cc1ccccc1)NC(=O)[C@H](CCC(=O)O)NC(=O)C(C)(C)NC(=O)[C@H](C)NC(=O)[C@H](C)NC(=O)[C@H](CCC(N)=O)NC(=O)[C@H](CCCCN)NC(=O)[C@H](CC(=O)O)NC(=O)[C@H](CC(C)C)NC(=O)[C@H](Cc1ccc(O)cc1)NC(=O)[C@@H](NC(=O)[C@H](CO)NC(=O)[C@H](Cc1ccc(O)cc1)NC(=O)[C@H](CC(=O)O)NC(=O)[C@H](CO)NC(=O)[C@@H](NC(=O)[C@H](Cc1ccccc1)NC(=O)[C@@H](NC(=O)CNC(=O)[C@H](CCC(=O)O)NC(=O)CSCC(=O)NCCN1CCc2ccccc2C1=O)[C@@H](C)O)[C@@H](C)O)[C@@H](C)CC)C(C)C)C(N)=O)C(=O)O` [Compound 13] yielded an EC50 (GLP-1R [1]; EC50 GLP-1R/nM, Table 3) of 1 to 10 nM, an EC50 (GLP-1R [1]; EC50 GLP-1R/nM, Table 3A) of 1 to 10 nM and an Emax (GLP-1R [1]; Table 3) of 69%. For the same compound, the Emax (GLP-1R [1]; Table 3A) was 69%, the EC50 (GIP-R; EC50 GIP-R/nM, Table 3) was 1 to 10 nM and the EC50 (GIP-R; EC50 GIP-R/nM, Table 3A) was 10 to 100 nM. For the same compound, the Emax (GIP-R; Table 3) was 25%, the Emax (GIP-R; Table 3A) was 25% and the EC50 (GLP-1R [2]) was > 1000 nM.

Compound `CC[C@H](C)[C@H](NC(=O)[C@H](CO)NC(=O)[C@H](Cc1ccc(O)cc1)NC(=O)[C@H](CC(=O)O)NC(=O)[C@H](CO)NC(=O)[C@@H](NC(=O)[C@H](Cc1ccccc1)NC(=O)[C@@H](NC(=O)CNC(=O)[C@H](CCC(=O)O)NC(=O)CSCC(=O)NCCn1ncc2ccccc2c1=O)[C@@H](C)O)[C@@H](C)O)C(=O)N[C@@H](Cc1ccc(O)cc1)C(=O)N[C@@H](CC(C)C)C(=O)N[C@@H](CC(=O)O)C(=O)N[C@@H](CCCCN)C(=O)N[C@@H](CCC(N)=O)C(=O)N[C@@H](C)C(=O)N[C@@H](C)C(=O)NC(C)(C)C(=O)N[C@@H](CCC(=O)O)C(=O)N[C@@H](Cc1ccccc1)C(=O)N[C@H](C(=O)N[C@@H](CC(N)=O)C(=O)N[C@@H](Cc1c[nH]c2ccccc12)C(=O)N[C@@H](CC(C)C)C(=O)N[C@@H](CC(C)C)C(=O)N[C@@H](C)C(=O)NCC(=O)NCC(=O)N1CCC[C@H]1C(=O)N[C@@H](CO)C(=O)N[C@@H](CO)C(=O)NCC(=O)N[C@@H](C)C(=O)N1CCC[C@H]1C(=O)N1CCC[C@H]1C(=O)N1CCC[C@H]1C(=O)N[C@@H](CO)C(=O)N[C@@H](CCCCN)C(N)=O)C(C)C` [Compound 136] has an EC50 (GLP-1R [1]; EC50 GLP-1R/nM, Table 3) of 10 to 100 nM, an EC50 (GLP-1R [1]; EC50 GLP-1R/nM, Table 3A) of 10 to 100 nM and an Emax (GLP-1R [1]; Table 3) of 91 to 94%. For the same compound, the Emax (GLP-1R [1]; Table 3A) was 91 to 94%, the EC50 (GIP-R; EC50 GIP-R/nM, Table 3) was 0.1 to 1 nM and the EC50 (GIP-R; EC50 GIP-R/nM, Table 3A) was 0.1 to 1 nM. For the same compound, the Emax (GIP-R; Table 3) was 105%, the Emax (GIP-R; Table 3A) was 105% and the EC50 (GLP-1R [2]) was > 1000 nM.

With `CCCCCCCCCCCCCCCC(=O)N[C@@H](CCC(=O)NCCCC[C@H](NC(=O)[C@H](CO)NC(=O)[C@@H]1CCCN1C(=O)[C@@H]1CCCN1C(=O)[C@@H]1CCCN1C(=O)[C@H](C)NC(=O)CNC(=O)[C@H](CO)NC(=O)[C@H](CO)NC(=O)[C@@H]1CCCN1C(=O)CNC(=O)CNC(=O)[C@H](C)NC(=O)[C@H](CC(C)C)NC(=O)[C@H](CC(C)C)NC(=O)[C@H](Cc1c[nH]c2ccccc12)NC(=O)[C@H](CC(N)=O)NC(=O)[C@@H](NC(=O)[C@H](Cc1ccccc1)NC(=O)[C@H](CCC(=O)O)NC(=O)C(C)(C)NC(=O)[C@H](C)NC(=O)[C@H](C)NC(=O)[C@H](CCC(N)=O)NC(=O)[C@H](CCCCN)NC(=O)[C@H](CC(=O)O)NC(=O)[C@H](CC(C)C)NC(=O)[C@H](Cc1ccc(O)cc1)NC(=O)[C@@H](NC(=O)[C@H](CO)NC(=O)[C@H](Cc1ccc(O)cc1)NC(=O)[C@H](CC(=O)O)NC(=O)[C@H](CO)NC(=O)[C@@H](NC(=O)[C@H](Cc1ccccc1)NC(=O)[C@@H](NC(=O)CNC(=O)[C@H](CCC(=O)O)NC(=O)CCC(=O)NCCN1CCCCC1=O)[C@@H](C)O)[C@@H](C)O)[C@@H](C)CC)C(C)C)C(N)=O)C(=O)O` [Compound 26] the Emax (GLP-1R [1]; Table 3) was 95%, the EC50 (GLP-1R [1]; [3]) was 0.1 to 1 nM and the Emax (GLP-1R [1]; Table 3A) was 95%. For the same compound, the EC50 (GLP-1R [1]; [4]) was 0.1 to 1 nM, the Emax (GIP-R; Table 3) was 64% and the EC50 (GIP-R; [5]) was 1 to 10 nM. The Emax (GIP-R; Table 3A) was 64%, the EC50 (GIP-R; [6]) was 1 to 10 nM and the EC50 (GLP-1R [2]; [7]) was > 1000 nM.
